The source of these data is patent publication US4160026A (priority 1976, dated 1979).

The test system of one series is cell-mediated immunity. In words: Cell-mediated immunity, delayed hypersensitivity (picryl chloride) in Sarcoma 180-inoculated mice. The following applies: 75 mg/kg. In kind it is in vivo, ICR-JCL strain mice. The protocol:
The tests were carried out by the following procedure: groups of ICR-JCL strain mice (six male mice per group, average body weight 31.9±3 g.) were inoculated with the ascites tumor "Sarcoma 180" (10^6 cells). 24 Hours after the inoculation of the tumor cells, each of the drug samples to be tested was subcutaneously administered and a known anti-tumor agent (cyclophosphamide) was intraperitoneally administered to the inoculated mice. Two days after the inoculation, an ethanolic solution of 5% picryl chloride was applied onto the hair-shaved abdomen of the mice to establish the sensitization. Subsequently, each drug sample under test was subcutaneously administered once a day for the successive four days. 4 Days after the inoculation, cyclophosphamide was again administered. Nine days after the inoculation, a solution of 1% picryl chloride in olive oil was challenged onto the two sides of both ears of the mice to establish the secondary sensitization. 24 Hours after the secondary sensitization, the degree (%) of increase in thickness of the ears was calculated for the test mice. The extent of the swelling which serves as a measure of stimulating cell-mediated immunity involved can be evaluated from the percentage increase in the ear thickness.

The next series deals with Sarcoma 180. In words: Solid tumor of Sarcoma 180, treatment after inoculation. In kind it is in vivo, ICR-strain mice. The following applies: 2 mg/kg, i.p., 5 days after inoculation. As to the method: In a separate experiment, male ICR-strain mice (five in each group with an average body weight of 20±2 g) were inoculated in the flank with 7×10^6 live tumor cells of Sarcoma 180 in 0.05 ml. After 24 hours, each group of mice was treated by intraperitoneal injection of 0.1 ml. of saline or sample dissolved in saline for 5 consecutive days. Seven days after the inoculation, all mice were sacrificed and the primary subcutaneous tumor excised and weighed.
In the above table, degree (%) of inhibition to the growth of tumor was calculated according to the following equation: [formula]

A further series can be described thus: Solubility. Type of series: physicochemical.
The next series deals with various bacteria. In words: Antibacterial activity with combined use of maltose or maltodextrin. In kind it is cell-based. The following applies: under the above-mentioned testing conditions. The protocol: These paper discs were placed on an upper plate layers of the known mycin-assay incubation medium comprising 0.5% peptone, 0.3% meat extract and 1.5% agar (pH 6) which contained the test microorganism to be incubated therein and which was laid over the lower layer of agar medium in the assaying dish. The incubation was made at a temperature of 37° C. overnight, and subsequently the diameter of the inhibition zones formed around the paper discs was measured. […] These tests were repeated in the same manner as above but with additional incorporation of 1.25 mg/cc of maltotriose into the upper plate layer of the mycin-assay incubation medium.

For the compound `O=P1(N(CCCl)CCCl)NCCCO1` (stereo not shown) [Cyclophosphamide, N,N-bis (2-chloroethyl)tetrahydro-2H-1,3,2-oxazophosphorin-2-amine-2-oxide], in the series on cell-mediated immunity, the “Degree of increase in ear thickness” value was 4.0 ± 2.60 ×10^-3 cm. In the series on cell-mediated immunity (untreated = 100.0), this compound yielded a percentage increase of 51.9%.
Consider `CO[C@@]12[C@H](COC(N)=O)C3=C(C(=O)C(C)=C(N)C3=O)N1C[C@@H]1N[C@@H]12` [Mitomycin C, mitomycin C], for which, in the series on Sarcoma 180, the “Degree (%) of inhibition to tumor growth” value is on record as 45% and the Tumor weight amounted to 0.43 g.
On to `OC[C@H]1O[C@H](O[C@H]2[C@H](O)[C@@H](O)[C@@H](O[C@H]3[C@H](O)[C@@H](O)[C@@H](O[C@H]4[C@H](O)[C@@H](O)[C@@H](O[C@H]5[C@H](O)[C@@H](O)[C@@H](O[C@H]6[C@H](O)[C@@H](O)C(O)O[C@@H]6CO)O[C@@H]5CO)O[C@@H]4CO)O[C@@H]3CO)O[C@@H]2CO)[C@H](O)[C@@H](O)[C@@H]1O` (stereo partly shown) [maltohexaose], for which the Solubility result in the series “Solubility” (in acetone) is given as “not soluble”; in the series “Solubility” (in ethanol), “not soluble”; in the series “Solubility” (in methanol), “sparingly soluble”; in the series “Solubility” (in water) it was “readily soluble”.
As for `OC[C@H]1O[C@H](O[C@H]2[C@H](O)[C@@H](O)[C@@H](O[C@H]3[C@H](O)[C@@H](O)[C@@H](O[C@H]4[C@H](O)[C@@H](O)[C@@H](O[C@H]5[C@H](O)[C@@H](O)C(O)O[C@@H]5CO)O[C@@H]4CO)O[C@@H]3CO)O[C@@H]2CO)[C@H](O)[C@@H](O)[C@@H]1O` (stereo partly shown) [maltopentaose], the Solubility entry was “not soluble” in the series “Solubility” (in acetone), “not soluble” in the series “Solubility” (in ethanol), “sparingly soluble” in the series “Solubility” (in methanol) and “readily soluble” in “Solubility” (in water).
As to `OC[C@H]1O[C@H](O[C@H]2[C@H](O)[C@@H](O)[C@@H](O[C@H]3[C@H](O)[C@@H](O)C(O)O[C@@H]3CO)O[C@@H]2CO)[C@H](O)[C@@H](O)[C@@H]1O` (stereo partly shown) [maltotriose], in the series with various bacteria, the “Antibacterial activity of maltodextrins alone” value is “do not exhibit any antibacterial activity”.
